# Test results reported in patent publication US5091389A, “Lipophilic macrolide useful as an immunosuppressant” (Merck & Co., Inc., priority 1991, dated 1992).
# Columns and labels:
# mouse T cells = assay: Inhibition of T-cell proliferation (mouse T cells stimulated with ionomycin + PMA, tritiated-thymidine incorporation); type: cell-based; conditions: for Percent Inhibition of Proliferation / reversal of inhibitory activity by exogenous IL-2: mouse T cells; for reversal of inhibitory activity by exogenous IL-2: exogenous IL-2 (50 units/ml)
# Description: Biological activity as a immunosupressant can be measured in terms of inhibition of T-cell proliferation.
# immune response = conditions: rats; cited from earlier work
# [1] = system: heart, kidney, bowel, pancreas or other transplantation; conditions: in combination with Cyclosporin A; cited from earlier work
# [2] = system: heterotopic heart allografts; conditions: rats given heterotopic heart allografts, cited from earlier work
Structure (SMILES),"Percent Inhibition of Proliferation (mouse T cells; 0.001 μM, ionomycin + PMA)","Percent Inhibition of Proliferation (mouse T cells; 0.01 μM, ionomycin + PMA)","Percent Inhibition of Proliferation (mouse T cells; 0.12 μM, ionomycin + PMA)","Percent Inhibition of Proliferation (mouse T cells; 1.2 μM, ionomycin + PMA)","Percent Inhibition of Proliferation (mouse T cells; 11.2 μM, ionomycin + PMA)",reversal of inhibitory activity by exogenous IL-2 (mouse T cells; ionomycin + PMA),inhibition of proliferation of mouse T cells (qualitative) (mouse T cells; ionomycin + PMA),"inhibition at 1.1 µM (mouse T cells; Mus musculus, T-cell, read-out: inhibited the proliferation)","inhibition of the response to allergic encephalomyelitis, adjuvant-induced arthritis and antibody production (immune response)",effect on amount of Cyclosporin A required [1],effect on nephrotoxicity of Cyclosporin A [1],toxicity ([2]; compared with what would be anticipated with FK-506),immunosuppression in heart allograft recipients [2]
"COC1CC2CCC(C)C(O)(O2)C(=O)C(=O)N2CCCCC2C(=O)OC(C(C)CC2CCC(O)C(OC)C2)CC(=O)C(C)/C=C(\C)C(O)C(O)C(=O)C(C)CC(C)/C=C/C=C/C=C/1C (centres unmarked) [29-desmethyl-rapamycin, 29-desmethyl rapamycin]",7%,32%,49%,59%,88%,not reversed by exogenous IL-2,found to inhibit the proliferation of mouse T cells,,,,,,
CO[C@H]1C[C@@H]2CC[C@@H](C)[C@@](O)(O2)C(=O)C(=O)N2CCCC[C@H]2C(=O)O[C@H]([C@H](C)C[C@@H]2CC[C@@H](O)[C@H](OC)C2)CC(=O)[C@H](C)/C=C(\C)[C@@H](O)[C@@H](OC)C(=O)[C@H](C)C[C@H](C)/C=C/C=C/C=C/1C [rapamycin],,,,,,not reversed by exogenous IL-2,,65%,"inhibiting the response to allergic encephalomyelitis,adjuvant-induced arthritis and antibody production in rats",reducing the amount of Cyclosporin A required to produce its immunosupressive effect,effectively reducing the nephrotoxicity inherent in treatment with Cyclosporin A,less toxicity was said to be experienced than would be anticipated with FK-506,immunosuppressive in rats given heterotopic heart allografts
